Consider seven molecules from US20230330254A1 (Regeneron Pharmaceuticals, Inc., priority 2022, published 2023).

The term EC50 denotes the concentration needed to bring the measured effect to its halfway point.

*1 amine or outer side, *2 acyl side, *3 side chain or, on linkers, in order; H or OH if unused. Where a SMILES comes first, the peptide text is derived from it. [ ]: non-standard residue; d: D form. The star is where a group is joined. Bip(2'-Et-4'-O(CH2)4NH2) = CCc1cc(OCCCCN[*:3])ccc1-c1ccc(C[C@H](N[*:1])C(=O)[*:2])cc1; Malonyl(2,2-Me2,histaminyl) = CC(C)(C(=O)NCCc1cnc[nH]1)C(=O)*; X7 = O=C(NCCOCCOCCOCCOC(=O)*)OC[C@@H]1[C@@H]2CCC#CCC[C@@H]21; Nva(5-(3,5-Me2Ph)) = Cc1cc(C)cc(CCC[C@H](N)C(=O)O)c1; Ala(1H-tetrazol-5-yl) = N[C@@H](Cc1nnn[nH]1)C(=O)O; αMePhe(2-F) = C[C@](N)(Cc1ccccc1F)C(=O)O

Test [1] has as its system HEK293/CRE-Luc cells. In words: Luciferase reporter assay, HEK293/CRE-Luc cells without hGLP1R (Example 11). The following applies: Experiment A. The test is classed as cell-based, human. The source says:
To test the activity of GLP1R agonist payloads, GLP1R agonist linker-payloads (LPs), and anti-GLP1R antibody tethered drug conjugates (ATDCs) of the disclosure, a cell-based cAMP responsive luciferase reporter assay was developed. To generate the assay cell line, the firefly luciferase gene was placed under the control of a cAMP response element (CRE) located upstream of a minimal promoter and transfected into HEK293 cells and referred to herein as HEK293/CRE-Luc cells.
Three-fold serial dilutions of free payloads or LPs were prepared in 100% DMSO, transferred to fresh assay media, and added to the cells at a final constant DMSO concentration of 0.2%. The last well in the plate served as a blank control containing only the assay media and 0.2% DMSO (untreated well) and was plotted as a continuation of the 3-fold serial dilution. Four to six hours later, luciferase activity was determined after the addition of One-Glo™ reagent (Promega, Cat #E6130) to each well. Relative light units (RLUs) were measured on an Envision luminometer (PerkinElmer) and EC50 values were determined using a four-parameter logistic equation over a 12-point dose response curve (GraphPad Prism). The signal to noise (S/N) was determined by taking the ratio of the highest RLU on the dose response curve to the RLU in the untreated wells.
(In general: In a reporter assay the amount or activity of a reporter protein is the signal.)

Test [2] has as its system HEK293/CRE-Luc cells. In words: Luciferase reporter assay, HEK293/CRE-Luc cells without GLP1R (Example 17). Type of test: cell-based, human. The following applies: HEK293/CRE-Luc cells without hGLP1R; for EC50: read-out: EC50. The method in brief: (§1)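 HEK293 cells carrying a CRE-driven firefly luciferase reporter were exposed to 3-fold serial dilutions of payloads or linker-payloads (12 points, 0.2% DMSO final) for 4–6 h, then luminescence was read. EC50 came from a four-parameter logistic fit; S/N is top RLU over untreated wells, and relative potency and S/N are referenced to M2361.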

In test [3] the target is T1, human GLP1R (Homo sapiens, UniProt P43220). Kind of test: Human GLP1R cAMP accumulation assay. The test is classed as cell-based. Set-up: HEK293 cells over-expressing full length human GLP-1R were utilized; expressed in transfected cells; host or cells: HEK293 (HEK293/hGLP1R). The following applies: HEK293/hGLP1R cells; Table 4; read-out: cAMP EC50. The procedure:
8.1 Human GLP1R cAMP Accumulation Assay (Cyclic AMP Determination)
The functional activity of the test compounds for agonizing GLP1R were evaluated using a cell-based assay. For the assay, HEK293 cells over-expressing full length human GLP-1R were utilized and the downstream cAMP accumulation was assessed as a measure of human GLP-1R stimulation. […] Diluted compounds were transferred to OptiPlates (100 nL/well) using an Echo liquid handler. HEK293/hGLP1R cells were thawed in 37° C. water-bath, washed 2 times with HBSS and re-suspended in assay buffer (HBSS+5 mM HEPES+500 μM IBMX+0.1% BSA). […] After centrifugation, the assay plate was incubated at 23° C. for 30 min. The reaction was terminated by adding 10 μL of lysis buffer containing D2-cAMP and a cAMP-antibody from the cyclic AMP immunoassay kit (Cisbio, Cat #62AM4PEJ). […] The levels of cAMP per well were calculated using a standard curve generated by GraphPad Prism. Percent activity was calculated according to the formula (% Activity=100%*(cAMP level-LC)/(HC-LC)). EC50 values were fitted from a four-parameter logistic equation over a 10-point response curve (GraphPad Prism).
Background: Cyclic AMP is a second messenger, typically raised through Gs and lowered through Gi signalling.

Test [4] addresses T1, human GLP1R. Kind of test: Luciferase reporter assay, HEK293/CRE-Luc/hGLP1R (Example 17). Set-up: engineered to express full-length human GLP1R, cynomolgus GLP1R; expressed in transfected cells; host or cells: HEK293/CRE-Luc. The following applies: HEK293/CRE-Luc/hGLP1R; for S/N: highest RLU / RLU of untreated wells; for EC50: payloads and linker-payloads, experiments A-E, M2361 repeated in each, read-out: EC50; for Relative Potency (% M2361 EC50) / Relative Signal:Noise (% M2361): relative to M2361 of the same experiment. Type of test: cell-based. The method in brief:
as §1

T1 sequence (P43220 24-463): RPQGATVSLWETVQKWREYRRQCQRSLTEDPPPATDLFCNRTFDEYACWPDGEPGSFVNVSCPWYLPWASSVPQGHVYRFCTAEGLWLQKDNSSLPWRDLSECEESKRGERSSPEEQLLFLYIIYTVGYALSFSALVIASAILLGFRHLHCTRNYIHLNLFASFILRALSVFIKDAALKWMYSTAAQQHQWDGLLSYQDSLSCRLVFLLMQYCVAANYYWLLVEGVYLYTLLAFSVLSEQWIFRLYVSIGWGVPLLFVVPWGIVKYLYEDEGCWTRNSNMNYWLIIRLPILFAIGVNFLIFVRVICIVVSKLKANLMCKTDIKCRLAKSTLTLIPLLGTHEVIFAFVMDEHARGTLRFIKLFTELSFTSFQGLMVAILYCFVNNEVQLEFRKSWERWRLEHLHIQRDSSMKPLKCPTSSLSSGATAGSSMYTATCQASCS

`CC[C@H](C)[C@H](NC(=O)[C@H](Cc1ccccc1)NC(=O)[C@H](CCC(=O)O)NC(=O)[C@H](CCCCN)NC(=O)[C@H](C)NC(=O)[C@H](C)NC(=O)[C@H](CCC(N)=O)NC(=O)CNC(=O)[C@H](CCC(=O)O)NC(=O)[C@H](CC(C)C)NC(=O)[C@H](Cc1ccc(O)cc1)NC(=O)[C@H](CO)NC(=O)[C@H](CO)NC(=O)[C@@H](NC(=O)[C@H](CC(=O)O)NC(=O)[C@H](CO)NC(=O)[C@@H](NC(=O)[C@H](Cc1ccccc1)NC(=O)[C@@H](NC(=O)CNC(=O)[C@H](CCC(=O)O)NC(=O)[C@H](C)NC(=O)[C@@H](N)Cc1c[nH]cn1)[C@@H](C)O)[C@@H](C)O)C(C)C)C(=O)N[C@@H](C)C(=O)N[C@@H](Cc1c[nH]c2ccccc12)C(=O)N[C@@H](CC(C)C)C(=O)N[C@H](C(=O)N[C@@H](CCCCN)C(=O)NCC(=O)N[C@@H](CCCNC(=N)N)C(N)=O)C(C)C` [GLP1, glucagon-like peptide 1, reference compound]: the “HEK293/CRE-LUC S/N” value in the test on HEK293/CRE-Luc cells [1] (Table 11, no hGLP1R expression) came out at 1.3. Besides, the “HEK293/CRE-Luc S/N” value in the test on HEK293/CRE-Luc cells [1] (Table 12) came out at 1.4. Also, the S/N in the test on HEK293/CRE-Luc cells [2] (ATDCs and references (Table 27)) stood at 1.4; in the test with HEK293/CRE-Luc cells [2] (payloads and linker-payloads), 1.3.
As to `CCc1cc(OCCCCNC(=O)[C@H](CO)NC(=O)CNC(=O)CNC(=O)CNC(=O)CNC(=O)CCC(=O)N2Cc3ccccc3C#Cc3ccccc32)ccc1-c1ccc(C[C@H](NC(=O)[C@H](CC(=O)O)NC(=O)[C@H](CO)NC(=O)[C@@H](NC(=O)[C@](C)(Cc2ccccc2F)NC(=O)[C@@H](NC(=O)CNC(=O)[C@H](Cc2nn[nH]n2)NC(=O)C(C)(C)C(=O)NCCc2cnc[nH]2)[C@@H](C)O)[C@@H](C)O)C(=O)N[C@@H](CCCc2cc(C)cc(C)c2)C(N)=O)cc1` [LP6, DIBAC- suc-G4S- P9], the EC50 at human GLP1R [3] worked out at 0.436 nM. Further, in the test on HEK293/CRE-Luc cells [2] (payloads and linker-payloads), the S/N came out at 1.4 and the EC50 was over 200 nM. On human GLP1R [4], the S/N was found to be 65.7, the concentration for a half-maximal effect (EC50) is 0.0251 nM, the “Relative Potency (% M2361 EC50)” value stood at 21.2% and the “Relative Signal:Noise (% M2361)” value is listed as 99.9%.
Regarding `CCc1cc(OCCCCN)ccc1-c1ccc(C[C@H](NC(=O)[C@H](CC(=O)O)NC(=O)[C@H](CO)NC(=O)[C@@H](NC(=O)[C@](C)(Cc2ccccc2F)NC(=O)[C@@H](NC(=O)CNC(=O)[C@H](Cc2nn[nH]n2)NC(=O)[C@H](C)NC(=O)[C@@H](N)Cc2ccc(O)cc2)[C@@H](C)O)[C@@H](C)O)C(=O)N[C@@H](CCCc2cc(C)cc(C)c2)C(N)=O)cc1` [P18], on human GLP1R [3], the EC50 worked out at 0.37 nM. In addition, in the test with HEK293/CRE-Luc cells [2] (payloads and linker-payloads), the S/N was found to be 1.4 and the EC50 was over 200 nM. On human GLP1R [4], the S/N came to 68.2, the EC50 worked out at 0.0613 nM, the “Relative Potency (% M2361 EC50)” value is reported as 8.7% and the “Relative Signal:Noise (% M2361)” value came out at 103.6%.
Consider `CCc1cc(OCCCCNC(=O)OCCOCCOCCOCCNC(=O)OC[C@@H]2[C@@H]3CCC#CCC[C@@H]32)ccc1-c1ccc(C[C@H](NC(=O)[C@H](CC(=O)O)NC(=O)[C@H](CO)NC(=O)[C@@H](NC(=O)[C@](C)(Cc2ccccc2F)NC(=O)[C@@H](NC(=O)CNC(=O)[C@H](Cc2nn[nH]n2)NC(=O)C(C)(C)C(=O)NCCc2cnc[nH]2)[C@@H](C)O)[C@@H](C)O)C(=O)N[C@@H](CCCc2cc(C)cc(C)c2)C(N)=O)cc1` [LP5, BCN-PEG4-carba-mate P9] ({Malonyl(2,2-Me2,histaminyl)}-[Ala(1H-tetrazol-5-yl)]GT[αMePhe(2-F)]TSD[Bip(2'-Et-4'-O(CH2)4NH2)](X7)[Nva(5-(3,5-Me2Ph))]-NH2), for which the EC50 at human GLP1R [3] was 0.044 nM. Besides, in the test with HEK293/CRE-Luc cells [2] (payloads and linker-payloads), the S/N was 1.8 and the EC50 was over 200 nM. Moreover, on human GLP1R [4], the S/N came to 54.8, the EC50 was 0.0242 nM, the “Relative Potency (% M2361 EC50)” value was 21.9% and the “Relative Signal:Noise (% M2361)” value amounted to 83.4%.
For `CCc1cc(OCCCCn2cc(COCCOCCOCCOCCNC(=O)OC[C@@H]3[C@@H]4CCC#CCC[C@@H]43)nn2)ccc1-c1ccc(C[C@H](NC(=O)[C@H](CC(=O)O)NC(=O)[C@H](CO)NC(=O)[C@@H](NC(=O)[C@](C)(Cc2ccccc2F)NC(=O)[C@@H](NC(=O)CNC(=O)[C@H](Cc2nn[nH]n2)NC(=O)C(C)(C)C(=O)NCCc2cnc[nH]2)[C@@H](C)O)[C@@H](C)O)C(=O)N[C@@H](CCCc2cc(C)cc(C)c2)C(N)=O)cc1` [LP9, BCN-PEG4-triazole-P8], the EC50 on human GLP1R [3] turned out to be 0.078 nM. In the test with HEK293/CRE-Luc cells [2] (payloads and linker-payloads), the S/N is on record as 1.3 and the EC50 was over 200 nM. Moreover, on human GLP1R [4], the S/N is on record as 73.8, the EC50 is 0.0174 nM, the “Relative Potency (% M2361 EC50)” value was 30.5% and the “Relative Signal:Noise (% M2361)” value was found to be 112.2%.
Take `CCc1cc(OCCCCNC(=O)CNC(=O)CNC(=O)CNC(=O)CNC(=O)[C@H](CO)NC(=O)CCC(=O)N2Cc3ccccc3C#Cc3ccccc32)ccc1-c1ccc(C[C@H](NC(=O)[C@H](CC(=O)O)NC(=O)[C@H](CO)NC(=O)[C@@H](NC(=O)[C@](C)(Cc2ccccc2F)NC(=O)[C@@H](NC(=O)CNC(=O)[C@H](Cc2nn[nH]n2)NC(=O)C(C)(C)C(=O)NCCc2cnc[nH]2)[C@@H](C)O)[C@@H](C)O)C(=O)N[C@@H](CCCc2cc(C)cc(C)c2)C(N)=O)cc1` [LP7, DIBAC-suc-SG4-P9]: the EC50 on human GLP1R [3] was found to be 0.378 nM. For the same molecule, in the test with HEK293/CRE-Luc cells [2] (payloads and linker-payloads), the S/N was determined as 1.1 and the EC50 is over 200 nM. Also, at human GLP1R [4], the S/N is 55.3, the EC50 was 0.00972 nM, the “Relative Potency (% M2361 EC50)” value amounted to 54.6% and the “Relative Signal:Noise (% M2361)” value came out at 84.1%.
In the case of `CCc1cc(OC)ccc1-c1ccc(C[C@H](NC(=O)[C@H](CC(=O)O)NC(=O)[C@H](CO)NC(=O)C(NC(=O)[C@](C)(Cc2ccccc2F)NC(=O)[C@@H](NC(=O)CNC(=O)[C@H](Cc2nn[nH]n2)NC(=O)C(C)(C)C(=O)NCCc2cnc[nH]2)[C@@H](C)O)[C@@H](C)O)C(=O)N[C@@H](CCCc2ccc(OCCCCN)cc2)C(N)=O)cc1` (stereo in doubt) [P24], the EC50 on human GLP1R [3] stood at 0.136 nM. Moreover, in the test on HEK293/CRE-Luc cells [2] (payloads and linker-payloads), the S/N came to 1.0 and the EC50 is over 200 nM. For the same molecule, on human GLP1R [4], the S/N turned out to be 65.0, the EC50 came to 0.0316 nM, the “Relative Potency (% M2361 EC50)” value worked out at 16.8% and the “Relative Signal:Noise (% M2361)” value was 98.9%.
